This passage reports GI50 and TGI results from PubChem BioAssay (NCI).

The term GI50 denotes the concentration that inhibits growth by half. The term TGI denotes the concentration giving total growth inhibition. Low values mean more potent growth arrest, high ones less potent growth arrest.

Some test systems named below: HCT-116 colon; SNB-75 CNS; OVCAR-4 ovarian; RXF 393 renal; NCI-H460 lung; CCRF-CEM leukemia; SNB-19 CNS; NCI-H226 lung; LOX IMVI melanoma; OVCAR-8 ovarian.
Test in all cases: DTP human tumour cell line panel, 48 h

Molecules are shown by their SMILES. Several values for one entry are separate records, joined by “and”; a condition that tells them apart may be missing. Equal entries are not always repeated.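 Compound exposure: 48 hours, 5 concentrations, 96-well plates. The concentration for 50% growth inhibition is given as GI50. TGI: concentration producing complete growth inhibition.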

For `Oc1ccc(Cl)cc1/C=N\NC(=S)N/N=C/c1cc(Cl)ccc1O`, the GI50 in the test with HCT-116 colon is 1.42 µM; with SNB-75 CNS, 6350 nM; with OVCAR-4 ovarian, 2.25 µM; in the test with RXF 393 renal it was 2030 nM; with NCI-H460 lung it was 2.58 µM; with CCRF-CEM leukemia, 0.468 µM. In addition, the GI50 with SNB-19 CNS is 3.4 µM; in the test on NCI-H226 lung, 2.34 µM; in the test with LOX IMVI melanoma it was 1.65 µM; in the test on OVCAR-8 ovarian, 1.92 µM. For the same molecule, the TGI in the test with HCT-116 colon is 18.5 µM; in the test on SNB-75 CNS, more than 100 µM; with OVCAR-4 ovarian it was 50.3 µM; with RXF 393 renal, 6.83 µM; in the test with NCI-H460 lung it was 13.3 µM; with CCRF-CEM leukemia it was 12.1 µM. Further, the total growth inhibition concentration (TGI) was more than 100 µM with SNB-19 CNS, 14.1 µM in the test with NCI-H226 lung, more than 100 µM with LOX IMVI melanoma and 17.7 µM with OVCAR-8 ovarian.

As to `COc1cc(/C=N/NC(=O)c2ccccc2Nc2cccc(C(F)(F)F)c2)cc(OC)c1OC`, the GI50 was 2.48 µM in the test with HCT-116 colon; 1540 nM in the test on SNB-75 CNS; 3.37 µM in the test with OVCAR-4 ovarian; 2350 nM in the test with RXF 393 renal; 2.3 µM in the test with NCI-H460 lung; 1.03 µM in the test on CCRF-CEM leukemia. Besides, the GI50 is 3.85 µM with SNB-19 CNS, 7.45 µM with NCI-H226 lung, 4.55 µM in the test with LOX IMVI melanoma and 4.81 µM in the test on OVCAR-8 ovarian. Also, the TGI with HCT-116 colon was determined as 6.4 µM; with SNB-75 CNS, 10.4 µM; in the test with OVCAR-4 ovarian it was 15.2 µM; with RXF 393 renal it was 5.87 µM; in the test on NCI-H460 lung, 6.33 µM; in the test on CCRF-CEM leukemia it was 4.33 µM. The TGI was determined as 18.5 µM in the test with SNB-19 CNS, 25.2 µM with NCI-H226 lung, 15.4 µM in the test on LOX IMVI melanoma and 11.6 µM in the test on OVCAR-8 ovarian.

Regarding `O=C1CCC(=O)c2sccc2N1`, the total growth inhibition concentration (TGI) in the test on HCT-116 colon, in the test with SNB-75 CNS, in the test with OVCAR-4 ovarian, in the test on RXF 393 renal, with NCI-H460 lung and in the test on CCRF-CEM leukemia was more than 100 µM throughout. Besides, the TGI in the test with SNB-19 CNS, in the test on NCI-H226 lung, with LOX IMVI melanoma and with OVCAR-8 ovarian was more than 100 µM each time.

With `COc1cccc2c1cc1c3c(cc4c(c32)OCO4)C(=O)N1`, the GI50 with HCT-116 colon is 3.63 µM; with SNB-75 CNS, 2400 nM; with OVCAR-4 ovarian it was 2.61 µM; in the test on RXF 393 renal, 2040 nM; in the test with NCI-H460 lung, 3.68 µM; in the test on CCRF-CEM leukemia it was 5.15 µM. Further, the GI50 in the test on SNB-19 CNS is 6.37 µM; in the test with NCI-H226 lung, 5.8 µM; with LOX IMVI melanoma it was 4.27 µM; in the test with OVCAR-8 ovarian it was 2.28 µM. The TGI in the test on HCT-116 colon is 13.2 µM; in the test on SNB-75 CNS it was 11.1 µM; in the test on OVCAR-4 ovarian, 7.26 µM; with RXF 393 renal, 5.5 µM; in the test on NCI-H460 lung, 20.4 µM; in the test on CCRF-CEM leukemia, more than 100 µM. In addition, the concentration for total growth inhibition (TGI) was more than 100 µM in the test with SNB-19 CNS, 54 µM in the test on NCI-H226 lung, 23.3 µM with LOX IMVI melanoma and 6.01 µM in the test on OVCAR-8 ovarian.

As to `O=C(/C=C/c1ccco1)c1ccc(Nc2nc(Nc3ccc(F)cc3)nc(Nc3ccc(F)cc3)n2)cc1`, the GI50 in the test on HCT-116 colon was 21 µM; with SNB-75 CNS, 30700 nM; in the test with OVCAR-4 ovarian it was 8.99 µM; in the test on RXF 393 renal, 41400 nM; in the test with NCI-H460 lung it was 13.1 µM; with CCRF-CEM leukemia, 19 µM. Besides, the GI50 with SNB-19 CNS is 20.5 µM; with NCI-H226 lung, 53.3 µM; in the test with LOX IMVI melanoma, 17.6 µM; in the test with OVCAR-8 ovarian, 17.4 µM. Besides, the TGI is more than 100 µM in the test on HCT-116 colon; 91.7 µM in the test on SNB-75 CNS; 36.2 µM with OVCAR-4 ovarian; more than 100 µM in the test with RXF 393 renal; 59 µM in the test on NCI-H460 lung; more than 100 µM in the test on CCRF-CEM leukemia. Further, the total growth inhibition concentration (TGI) with SNB-19 CNS was 70.8 µM; with NCI-H226 lung it was more than 100 µM; in the test on LOX IMVI melanoma, 45.3 µM; with OVCAR-8 ovarian it was 46.1 µM.

For `Cc1ccc(S(=O)(=O)NC(CO)C(=O)O)cc1` (configuration not stated), the concentration for total growth inhibition (TGI) with HCT-116 colon, in the test with SNB-75 CNS, in the test with OVCAR-4 ovarian, with RXF 393 renal, in the test on NCI-H460 lung and in the test with CCRF-CEM leukemia was more than 100 µM each time. The total growth inhibition concentration (TGI) in the test with SNB-19 CNS, with NCI-H226 lung, in the test on LOX IMVI melanoma and with OVCAR-8 ovarian was more than 100 µM in each case.

Turning to `COC(=O)C(C(=O)C(N)=O)c1csc(-n2nc(-c3ccccc3)cc2-c2ccccc2)n1` (configuration not stated), the TGI with HCT-116 colon, with SNB-75 CNS, with OVCAR-4 ovarian, with RXF 393 renal, with NCI-H460 lung and in the test on CCRF-CEM leukemia was more than 31.6 µM throughout. The TGI in the test with SNB-19 CNS is 17.2 µM; in the test with NCI-H226 lung it was more than 31.6 µM; in the test with LOX IMVI melanoma, more than 100 µM; in the test on OVCAR-8 ovarian, more than 31.6 µM.

`COc1ccc(C(=O)c2cc3c(N)c(C(=O)Nc4cccc(OC)c4)sc3nc2C)cc1`: the concentration for 50% growth inhibition (GI50) in the test with HCT-116 colon was 0.368 µM; in the test on SNB-75 CNS, 541 nM; with OVCAR-4 ovarian, 3.01 µM; in the test on RXF 393 renal, 323 nM; in the test with NCI-H460 lung, 0.741 µM; in the test on CCRF-CEM leukemia, 0.363 µM. For the same molecule, the GI50 in the test on SNB-19 CNS was 0.513 µM; in the test with NCI-H226 lung, 2.99 µM; in the test on LOX IMVI melanoma, 0.676 µM; with OVCAR-8 ovarian, 1.75 µM. The concentration for total growth inhibition (TGI) in the test on HCT-116 colon, in the test with SNB-75 CNS, in the test on OVCAR-4 ovarian, in the test on NCI-H460 lung, with CCRF-CEM leukemia and with SNB-19 CNS was more than 100 µM throughout. Further, the TGI in the test on NCI-H226 lung, in the test with LOX IMVI melanoma and in the test with OVCAR-8 ovarian was more than 100 µM throughout.

Regarding `O=C(C=C=Nc1ccccc1)C(=O)N=C=Cc1ccccc1`, the GI50 in the test on HCT-116 colon is 1.55 µM; with SNB-75 CNS, 3540 nM; in the test on OVCAR-4 ovarian, 2.15 µM; with NCI-H460 lung, 14.1 µM; with CCRF-CEM leukemia it was 0.724 µM; in the test with SNB-19 CNS, 31.6 µM. In addition, the GI50 with NCI-H226 lung was 16.4 µM; with LOX IMVI melanoma it was 1.93 µM; in the test on OVCAR-8 ovarian it was 3.84 µM. The TGI was 3.84 µM in the test on HCT-116 colon; 18.5 µM with SNB-75 CNS; 6.41 µM in the test with OVCAR-4 ovarian; 0.497 µM in the test with RXF 393 renal; 44.1 µM with NCI-H460 lung; more than 100 µM in the test on CCRF-CEM leukemia. Moreover, the concentration for total growth inhibition (TGI) is more than 60.7 µM in the test on SNB-19 CNS, 59.8 µM with NCI-H226 lung, 4.48 µM in the test on LOX IMVI melanoma and 14.4 µM in the test on OVCAR-8 ovarian.

Turning to `CC(/C=N/N=C(N)N)=N\N=C(N)N`, the GI50 was 52.1 µM in the test on HCT-116 colon; 28300 nM in the test with SNB-75 CNS; 13.2 µM in the test with OVCAR-4 ovarian; more than 45600 nM with RXF 393 renal; 26.3 µM in the test with NCI-H460 lung; 18.8 µM with CCRF-CEM leukemia. For the same molecule, the GI50 with SNB-19 CNS was 14.5 µM; in the test on LOX IMVI melanoma, 29.9 µM; in the test on OVCAR-8 ovarian it was 11.6 µM. For the same molecule, the TGI in the test with HCT-116 colon is 1370 µM; in the test with SNB-75 CNS, 187 µM; with OVCAR-4 ovarian it was 95.3 µM; with RXF 393 renal it was 734 µM; in the test with NCI-H460 lung, 201 µM; with CCRF-CEM leukemia it was > 78.5 µM and 1300 µM. Also, the TGI in the test on SNB-19 CNS was 722 µM; with NCI-H226 lung, 459 µM; in the test on LOX IMVI melanoma, 202 µM; in the test with OVCAR-8 ovarian, > 76 µM and 378 µM.

As to `CC(=O)Nc1ccc(-c2nnc(SCC(=O)Nc3ccc(Cl)cc3)o2)cc1`, the TGI in the test on HCT-116 colon is 20.2 µM; with SNB-75 CNS, 39.7 µM; with OVCAR-4 ovarian it was 55.9 µM; with RXF 393 renal, 22.6 µM; in the test with NCI-H460 lung, 36.8 µM; with CCRF-CEM leukemia it was 82.9 µM. In addition, the TGI was determined as 35.7 µM with SNB-19 CNS, 37 µM in the test on NCI-H226 lung, 22.4 µM in the test with LOX IMVI melanoma and 74.1 µM with OVCAR-8 ovarian.

Turning to `Cn1cc(C2=C(c3cn(CCCCC(=N)N)c4ccccc34)C(=O)NC2=O)c2ccccc21`, the GI50 in the test on HCT-116 colon is 17.5 µM; with SNB-75 CNS, 1650 nM; in the test on OVCAR-4 ovarian it was more than 25 µM; in the test with RXF 393 renal, more than 25000 nM; in the test on NCI-H460 lung it was more than 23.8 µM; in the test on CCRF-CEM leukemia it was 11.5 µM. Moreover, the GI50 in the test with SNB-19 CNS was 21.8 µM; with NCI-H226 lung, more than 25 µM; with LOX IMVI melanoma, more than 25 µM; in the test on OVCAR-8 ovarian it was more than 25 µM. Moreover, the TGI in the test with HCT-116 colon, with SNB-75 CNS, with OVCAR-4 ovarian, in the test on RXF 393 renal, with NCI-H460 lung and in the test on CCRF-CEM leukemia was more than 25 µM each time. The concentration for total growth inhibition (TGI) in the test with SNB-19 CNS, with NCI-H226 lung, with LOX IMVI melanoma and in the test with OVCAR-8 ovarian was more than 25 µM throughout.

Consider `c1ccc(-c2nnc3nn4c(-c5ccccc5)cnnc4c3c2-c2ccccc2)cc1`, for which the concentration for total growth inhibition (TGI) in the test with HCT-116 colon is more than 100 µM; with SNB-75 CNS it was 83.9 µM; in the test on OVCAR-4 ovarian, 42.5 µM; in the test with RXF 393 renal, 46.3 µM; in the test with NCI-H460 lung, more than 100 µM; with CCRF-CEM leukemia, more than 100 µM. In addition, the TGI in the test with SNB-19 CNS is 61.2 µM; in the test with NCI-H226 lung it was more than 100 µM; in the test on LOX IMVI melanoma, more than 100 µM; in the test with OVCAR-8 ovarian, more than 100 µM.
